Read-outs that look alike come from different tables or passages of the source.
What was measured:
[1] = system: E. coli 0111:B4 bacteria; assay type: binding; conditions: in °C (unit assumed)
[2] = system: E. coli 0111:B4
[3] = system: J5 bacteria phagocytosed by J774A.1 mouse macrophage cell line; assay type: cell-based
[4] = system: mouse monoclonal anti-fluorescein antibody (#4-4-20); assay type: binding
Text: Millipolarization data was hand calculated using the above equations as described for the fully automated instrument. Total intensity is not represented in the following tables. Table 48 illustrates the reactivity of PMB-Cys-Fl when reacted with mouse monoclonal anti-fluorescein antibody (#4-4-20) obtained from Edward M. Voss at the University of Illinois Urbana.

[5] = biological target: avidin and chicken anti-PMB antibody (Gallus gallus, UniProt P02701)
Protocol: The capture ELISA was performed as described below. […] The coating suspensions were decanted, and all wells were washed three times using PBS+0.5% Tween 20 (PBST). In order to block non-specific binding sites, 100 ul of 1% BSA (Sigma, St. Louis, Mo.) in PBS (blocking solution) was then added to each well, and the plates were incubated for 1 hr. at 37° C.
The blocking solution was decanted, and duplicate samples of 150 ul of either PMB-Cy-Biotin or PMB-Cy-Fl added to the first well of a dilution series. The initial testing concentration of the premixed conjugate was 10 ng/ml in blocking buffer (see above), followed by 5 fold dilutions in blocking buffer. This was accomplished by serially transferring 30 ul aliquots to 120 ul buffer, mixing, and repeating the dilution into a fresh well. After the final dilution, 30 ul was removed from the well such that all wells contained 120 ul final volume. A total of 2 such dilutions were performed. […] Following this incubation, the serially diluted samples were decanted, and the wells were washed six times using PBST (Phosphate-Buffered Saline with Tween). To each well, 100 ul of 1/1000 diluted chicken anti-PMB antibody or chicken preimmune, diluted in blocking buffer was added, and the plate incubated 1 hr at 37° C. The antibody solutions were decanted and the plates were washed as described above. To each well, 100 ul of 1/1000 diluted rabbit anti-chicken IgG alkaline phosphatase (Sigma) diluted in blocking buffer was added, and the plate incubated 1 hr at 37° C. The antibody solutions were decanted and the plates were washed as described above, substituting 50 nM Na2CO3, pH 9.5 for the PBST in the final wash. The plates were developed by the addition of 100 ul of a solution containing 1 mg/ml para-nitro phenyl phosphate (Sigma, St. Louis, Mo.) dissolved in 50 nM Na2CO3, 10 mM MgCl2, pH 9.5 to each well, and incubating the plates at room temperature in the dark overnight. […] Only the ELISA readings from the maximally diluted samples in each dilution series are shown.

[6] = system: E. coli J5; assay type: cell-based; design: key: −: no agglutination; +: microagglutination; +++: macroagglutination; conditions: for Agglutination by avidin beads: Table 53
Protocol: (§1) 100 ul polystyrene beads (Spherotech […], 5% w/v) were aliquoted to two 1.5 mL microcentrifuge tubes, centrifuged 1 min at 12,000 g in microcentrifuge and washed 2×with 1 ml PBS (vortexed and recentrifuged 1-2 min after each wash). The beads were resuspended in 900 ul PBS, and 100 ul of 1 mg/ml solution of avidin (Sigma) added, and the tubes rotated overnight at room temperature. The beads were pelleted, and washed sequentially as described above with 1 ml PBS, PBS+0.5% tween 20 (PBST), and PBS, and each sample resuspended in 200 ul PBS. The samples were pooled and stored at 4 degrees.
(§2) 20 ul avidin coated beads were aliquoted into 2×1.5 ml microcentrifuge tubes, and non-specifically binding sites blocked by rotating with 1 ml PBS+1% BSA for 1 hr at room temperature. […] The samples were pelleted, and washed with 1 ml PBS, repelleted and resuspended with 20 ul PBS. III Bacterial Agglutination Assays
(§3) 5 ul of each resin was added to 20 ul bacteria (1/10 dilution of a saturated overnight culture) in independant depression wells (2 wells/bacteria tested). The samples were incubated 30 min at 37 degrees, swirled, and agglutination scored. (Note that −=no agglutination, +=microagglutination and +++=macroagglutination)
To determine if free Immunoadaptor™ compounds can also stably bind surface exposed bacterial structures, agglutination assays were performed using bacteria prebound to Immunoadaptor™ compounds. The assay was performed with J5 bacteria, since the agglutination signal (see table above) was the strongest with this strain. 40 ul avidin coated resin was blocked for 1 hr at room temperature with 1 ml PBS+1% BSA, pelleted as described above, and resuspended in 40 ul PBS. […] The following assays were performed:
Incubated 1 hr at 37 degrees in depression well, swirled and agglutination scored.
Incubated 10 min at 37 degrees then added 5 ul avidin coated beads. Incubated 1 hr at 37 degrees in depression well, swirled and agglutination scored.
Incubated 15 min at 37 degrees, pelleted cells by centrifugation, washed with 100 ul PBS (resuspended cells with micropipetter) and repelleted. Cells were resuspended in 80 ul PBS, 20 ul aliquots distributed to depression well, 5 ul avidin coated beads added, and, incubated 1 hr at 37 degrees, swirled and agglutination scored.

[7] = system: E. coli J5; assay type: cell-based; conditions: Table 40
[8] = system: Salmonella 34576; assay type: cell-based; design: key: −: no agglutination; +: microagglutination; +++: macroagglutination; conditions: avidin beads loaded with compound
Protocol: as §1, §2, §3

[9] = system: E. coli 0111:B4; assay type: cell-based; design: key: −: no agglutination; +: microagglutination; +++: macroagglutination; conditions: avidin beads loaded with compound
Protocol: as §1, §2, §3

[10] = system: E. coli HB101; assay type: cell-based; design: key: −: no agglutination; +: microagglutination; +++: macroagglutination; conditions: avidin beads loaded with compound
Protocol: as §1, §2, §3

[11] = system: H16 bacterial strain; assay type: binding; conditions: 1 ug/ml, Extravidin and anti-avidin chase
[12] = system: Staph. aureus; assay type: binding; conditions: bacteria coated at 5.0 ug/ml, washed
Protocol: (§4) Staph. aureus and E. coli 0111: B4 were cultured in TSB media at 37 degrees C with shaking. Cells were collected by centrifugation and suspended in 50 mM sodium phosphate buffer, pH 6.8. The cells were again collected by centrifugation and suspended in […] sodium phosphate buffer containing 0.025% sodium azide (buffer).
(§5) The bacteria were diluted with buffer to an absorbance of 1.0 at 620 nm. PMB-Cys-Mal-FL was added to 2.5 ml of each diluted bacterial suspension, to a final concentration of 5.0 ug/ml. The suspensions were incubated at ambient temperature for 5 minutes. The bacteria were collected by centrifugation and suspended in buffer, repeated for a total of three times. The bacteria were then suspended in buffer and Tween 20 detergent was added to a final concentration of 0.1%. The bacteria were again collected by centrifugation and suspended in 1.5 ml buffer without Tween 20.
(§6) The bacteria were diluted 10 fold with buffer and fluorescence was measured in a Sequoia-Turner model 450 Fluorometer using NB490 and SC515 filters with the gain at 5. Mouse monoclonal anti-fluorescein antibody 4-4-20 was added with mixing to the bacterial suspensions. Table 50 summarizes the experimental results.

[13] = system: E. coli 0111: B4; assay type: binding; conditions: bacteria coated at 5.0 ug/ml, washed; no antibody
Protocol: as §4, §5, §6

avidin and chicken anti-PMB antibody, sequence (P02701 25-152): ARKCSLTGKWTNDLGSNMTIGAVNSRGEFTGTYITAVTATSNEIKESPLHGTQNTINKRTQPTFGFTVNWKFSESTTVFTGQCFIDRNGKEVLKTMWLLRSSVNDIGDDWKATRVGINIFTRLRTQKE

polymyxin B—cystiene—Maleimamide—fluorescein [PMB-Cys-Mal-FL]
mP ([1]; E. coli (2.7 × 10^8 bacteria) & PMB-Cys-Mal-Fl): 256.8 | mP ([1]; PMB-Cys-Mal-Fl (10^−8 M) alone): 57.3 | MIC ([2]; Table 40, first number of the cell): 0.9 µg/mL | MIC ([2]; Table 44): 1 µg/mL | % Macrophage with phagocytosed bacteria ([3]; Table 59, 0.5 ug/ml then 10 ug/ml anti-fluorescein antibody (chase)): 40% | % Macrophage with phagocytosed bacteria ([3]; Table 59, 0.5 ug/ml with 10 ug/ml anti-fluorescein antibody (premix)): 29% | % Macrophage with phagocytosed bacteria ([3]; Table 59, opsonin alone): 15% | Recovered bacterial colonies ([3]; Table 59, opsonin alone): 29 | Recovered bacterial colonies ([3]; Table 59, then anti-fluorescein antibody (chase)): 76 | Recovered bacterial colonies ([3]; Table 59, with anti-fluorescein antibody (premix)): 52 | % Macrophage with phagocytosed bacteria ([3]; Table 60, 1×10^8 J5 bacteria opsonized, from 100 macrophage examined, conjugates 0.5 ug/ml, anti-avidin 1/500, anti-fluorescein antibody 25 ug/ml): 5% | % Macrophage with phagocytosed bacteria ([3]; Table 61 (repeat assay), 1×10^8 J5 bacteria opsonized, from 100 macrophage examined, conjugates 0.5 ug/ml, anti-avidin 1/400, anti-fluorescein antibody 14 ug/ml): 8% | enhancement of phagocytosis (in words) ([3]; with anti-fluorescein antibody): Clear elevation of phagocytosis | mP ([4]; PMB-Cys-Mal-FL 10^−7 M alone): 32.5 | mP ([4]; antibody 5 × 10^-8 M & PMB-Cys-Mal-FL 10^-7 M): 390.3 | quenching of the intensity signal by anti-fluorescein antibody ([4]; not represented in Table 48): 95% | ELISA absorbency at 410 nm ([5]; Anti-PMB test antibody, Avidin coated wells, maximally diluted sample): 0.033 | ELISA absorbency at 410 nm ([5]; Anti-PMB, PBS coated wells): 0.016 | ELISA absorbency at 410 nm ([5]; Preimmune, Avidin coated wells): 0.010 | ELISA absorbency at 410 nm ([5]; Preimmune, PBS coated wells): 0.020 | Agglutination by avidin beads ([6]; Chase format): − | Agglutination by avidin beads ([6]; Premix format): − | Agglutination by avidin beads ([6]; Wash + Chase format): − | Agglutination ([6]; avidin beads loaded with compound): − | MIC [7]: 0.8 µg/mL | Agglutination [8]: − | Agglutination [9]: − | Agglutination [10]: − | ELISA titer ([11]; 2 × 10^5 bacteria): 0.005 | ELISA titer ([11]; 2 × 10^6 bacteria): 0.162 | FLUORESCENCE of coated bacteria [12]: 5 AFU | FLUORESCENCE of coated bacteria [13]: 40 AFU
